Reference: US8486958B2, “Crystalline forms of a 3-carboxypropyl-aminotetralin compound” (priority 2008, dated 2013)

Columns and labels:
[1] = Dynamic moisture sorption assessment; assay type: physicochemical; conditions: for deliquescence: up to about 90% relative humidity at room temperature
Experimental: Dynamic moisture sorption (DMS) assessment was performed at 25° C. using a VTI atmospheric microbalance, SGA-100 system (VTI Corp., Hialeah, Fla. 33016). […] A typical DMS analysis consisted of three or four scans: ambient to 2% relative humidity (RH), 2% RH to 90% RH, 90% RH to 5% RH at a scan rate of 5% RH/step, and, in some case a second adsorption 2% RH to 90% RH. The mass was measured every two minutes and the RH was changed to the next value (±5% RH) when the mass of the sample was stable to within 0.02% for 5 consecutive points.

human mu opioid receptor [2] = target: T1, human mu opioid receptor (Homo sapiens, UniProt P35372); assay: Radioligand binding assay, [3H]-Diprenorphine displacement, CHO-K1 membranes
T1 construct: expressed in transfected cells; host or cells: CHO-K1

human mu opioid receptor [3] = target: T1, human mu opioid receptor; assay: Human mu GTP-Eu nucleotide exchange assay (agonist mediated activation); assay type: biochemical; conditions: relative to DAMGO as full agonist; read-out: intrinsic activity (IA), bound GTP-Eu relative to DAMGO (IA=100)
[4] = system: loperamide-induced delayed gastric emptying; assay: Rat gastric emptying assay (reversal of loperamide-induced delay); assay type: in vivo; conditions: administered orally, loperamide 1 mg/kg s.c.
Experimental: Assay 3: Rat Model of In Vivo Efficacy In this assay the efficacy of test compounds was evaluated in a model of gastrointestinal transit, which evaluates peripheral activity. This study was approved by the Institutional Animal Care and Use Committee at […]. and conformed to the Guide for the Care and Use of Laboratory Animals published by the National Academy of Sciences (©1996). Test compounds were evaluated in the rat gastric emptying assay to determine their ability to reverse loperamide-induced delayed gastric emptying. Rats were fasted up overnight prior to administration of test compounds or vehicle by intravenous, subcutaneous, intramuscular or oral routes of administration at doses ranging from 0.001 to about 30 milligrams/kilogram (mg/kg). The administration of test compound was followed by subcutaneous administration of loperamide at a dose of 1 mg/kg or vehicle. […] Gastric weight was then determined after removal of the ligatures. Data was analyzed using the GraphPad Prism Software package (GraphPad Software, Inc., San Diego, Calif.). Percent reversal curves were constructed by non-linear regression analysis using the sigmoidal dose response (variable slope) model and best-fit ID50 values were calculated. […]

[5] = system: motility of the gastrointestinal (GI) tract; assay: Gastrointestinal motility in animal models; assay type: in vivo
[6] = Thermogravimetric analysis (TGA); assay type: physicochemical; conditions: temperatures below the melting point
Experimental: Thermogravimetric analysis (TGA) was performed using a TA Instruments Model Q-500 module. Data were collected and analyzed using TA Instruments Thermal Advantage for Q Series™ software. A sample weighing about 1-5 mg was placed in an aluminum pan on a platinum cradle and scanned from ambient temperature to 300° C. with a linear heating rate of 10° C./min. The balance and furnace chambers were purged with nitrogen during use. Representative TGA traces for samples of crystalline Form I and of a crystalline hydrochloride salt of compound 1 are also shown in FIGS. 2 and 7, respectively.

T1 sequence (P35372 whole entry): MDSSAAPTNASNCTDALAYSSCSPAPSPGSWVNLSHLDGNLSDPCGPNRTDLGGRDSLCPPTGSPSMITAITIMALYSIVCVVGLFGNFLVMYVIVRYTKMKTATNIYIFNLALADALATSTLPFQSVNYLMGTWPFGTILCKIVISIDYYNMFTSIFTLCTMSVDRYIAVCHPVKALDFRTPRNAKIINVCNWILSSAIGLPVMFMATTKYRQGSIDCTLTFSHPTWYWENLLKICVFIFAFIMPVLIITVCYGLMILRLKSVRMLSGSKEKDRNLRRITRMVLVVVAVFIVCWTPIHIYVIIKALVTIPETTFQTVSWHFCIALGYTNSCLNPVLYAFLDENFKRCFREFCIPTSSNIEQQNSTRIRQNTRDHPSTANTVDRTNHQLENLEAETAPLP

For `CCC1(CC)c2cc(C(N)=O)ccc2C[C@H](OC)[C@H]1NCC[C@H](CC1CCCCC1)C(=O)O.Cl` [(S)-4-((2S,3S)-7-Carbamoyl-1,1-diethyl-3-methoxy-1,2,3,4-tetrahydronaphthalen-2-ylamino)-2-cyclohexylmethyl-butyric acid hydrochloride], the “appearance and flowability on exposure to humidity” value ([1]; about 2% to about 90% relative humidity at room temperature) was “retained their appearance and flowability” and the deliquescence [1] was “neither crystalline compound 1 nor the crystalline hydrochloride salt of compound 1 is deliquescent”.
For `CCC1(CC)c2cc(C(N)=O)ccc2C[C@H](OC)[C@H]1NCC[C@H](CC1CCCCC1)C(=O)O` [Compound 1, (S)-4-((2S,3S)-7-carbamoyl-1,1-diethyl-3-methoxy-1,2,3,4-tetrahydronaphthalen-2-ylamino)-2-cyclohexylmethyl-butyric acid], the Ki (human mu opioid receptor [2]) was 0.398 nM, the Emax (human mu opioid receptor [3]) was -8% and the “ID50, dose required for 50% reversal of the effects of loperamide” value [4] was 0.09 mg/kg. The “effect on motility of the gastrointestinal tract” value [5] was “increase motility of the gastrointestinal (GI) tract”.
With `CCC1(CC)c2cc(C(N)=O)ccc2C[C@H](OC)[C@H]1NCC[C@H](CC1CCCCC1)C(=O)O` [Form I, (S)-4-((2S,3S)-7-carbamoyl-1,1-diethyl-3-methoxy-1,2,3,4-tetrahydronaphthalen-2-ylamino)-2-cyclohexylmethyl-butyric acid] the “weight gain (moisture sorption)” value ([1]; 40% to 75% relative humidity) was “less than 1%” and the TGA weight loss [6] was “no significant weight loss”.
In the case of `CCC1(CC)c2cc(C(N)=O)ccc2C[C@H](OC)[C@H]1NCC[C@H](CC1CCCCC1)C(=O)O` [crystalline compound 1, (S)-4-((2S,3S)-7-carbamoyl-1,1-diethyl-3-methoxy-1,2,3,4-tetrahydronaphthalen-2-ylamino)-2-cyclohexylmethyl-butyric acid], the “weight gain (moisture sorption)” value ([1]; 2% to 90% relative humidity, room temperature) is reported as “less than 2.5%” and the deliquescence [1] is reported as “neither crystalline compound 1 nor the crystalline hydrochloride salt of compound 1 is deliquescent”.
